Key:
[1] = Dynamic Vapor Sorption (DVS) with XRPD before and after; assay type: physicochemical
Experimental: Samples were analyzed using an Aquadyne DVS-2 gravimetric water sorption analyzer. The relative humidity was adjusted between 2-95% and the weight of the sample was continuously monitored and recorded with respect to the relative humidity and time.
The same material was subjected under the Dynamic Vapor Sorption (DVS, FIGS. 3 and 4).
The purity of the sample was also verified by ^1H-NMR. […] The amorphous salt was also studied by DVS. During Desorption 1, (from 50 to 0% RH), a weight loss of around 3% was observed whilst, during Sorption 1 (from 0 to 95% RH), a weight gain of 10%. Desorption 2 indicates a weight loss of 3% was observed and during Sorption 2 (from 0 to 95% RH) the weight loss was continued to additional 1%. In the final stage, Desorption 3 (from 95 to 50% RH), around 1% weight loss was observed (see FIG. 17). The amorphous Compound 1.HCl was analyzed by XRPD and optical microscopy post-DVS experiment.

[2] = Heating of amorphous salt at 140° C., XRPD and DSC; assay type: physicochemical; details: amorphous salt heated to 140° C. for 30 min (Sample D9)
Experimental: FIG. 18 illustrates the post-DVS XRPD comparison with the amorphous and Pattern A (original salt). The amorphous salt was heated to 140° C. for 30 min and characterized by XRPD and DSC (Sample ID: D9). […] The DSC thermogram in FIG. 21 also confirms the conversion of amorphous to crystalline (Pattern A) after heating the amorphous sample at 140° C.

[3] = tested on: blood coagulation components; assay type: in vivo
Experimental: The following parameters and endpoints were evaluated in this study: mortality, body weight, physical, clinical pathology parameters (hematology and coagulation), coagulation time, and bioanalytical parameters.
The vehicle and test article were administered via intravenous (IV) infusion once on Day 1 for 135 minutes (initiated 30 minutes prior to starting the Cardiopulmonary Bypass (CPB) and continuing for 105 minutes of CPB). Group 2 animals received a […] IV bolus dose immediately prior to the start of IV infusion. Group 3, 4, and 5 animals received a 10 mg/kg IV bolus dose prior to the start of the IV infusion; with the CPB machine primed with test article at 10 μg/mL.
Infusion of the Compound 1 was started 30 minutes prior to the animal being placed on the CPB pump. The CPB pump was primed with 0.9% saline.
Venous and arterial sheaths were flushed with the Compound 1 at a concentration of 10 μg/mL. An IV bolus dose of the test article was administered immediately prior to the start of the infusion. Infusion of Compound 1 was started 30 minutes prior to the animal being placed on the CPB pump. The CPB […] was primed with 10 μg/mL of the Compound 1 prior to initiation of the CPB pump.
An IV bolus dose of the Compound 1 was administered immediately prior to the start of the infusion. Infusion of Compound 1 was started 30 minutes prior to the animal being placed on the CPB pump.

[4] = Relative stability of the forms: competitive slurries of Pattern A and amorphous form; assay type: physicochemical; details: Pattern A + amorphous form in TBME, IPA and THF:H2O (95:5), RT and 45° C.
[5] = Solubility of Compound 1.HCl measured gravimetrically in solvents/solvent mixtures; assay type: physicochemical; details: thermodynamic from solid, slurried 48 h, gravimetric
Experimental: Solubility of Compound 1.HCl was measured gravimetrically in 12 different solvents and solvent mixtures at 15 and 45° C. About 90 mg of the compound was dispensed in 1 mL of the solvent/solvent mixture and slurried for 48 h. The vials were centrifuged. The supernatant was collected and left for slow evaporation under vacuum at 45° C. The solids obtained after evaporation were used to determine the solubility of Compound 1.HCl and analyzed by XRPD for any new form. Table 1 represents the solubility of Compound 1.HCl in different solvents.

[6] = amorphous salt (Sample C1), from 0 to 95% RH

C[C@@H](NC(=O)N1C(=O)[C@H](Cc2ccnc(N)c2)[C@H]1C(=O)O)C1CCCCC1.Cl [amorphous Compound 1.HCl]
weight loss, DVS Desorption 2 ([1]; amorphous salt (Sample C1)): 3%
solid form by XRPD post-DVS ([1]; amorphous salt (Sample C1), post-DVS experiment): reverts back to crystalline salt (Pattern A)
additional weight loss, DVS Sorption 2 [1, 6]: 1%
weight gain, DVS Sorption 1 [1, 6]: 10%
weight loss, DVS Desorption 1 ([1]; amorphous salt (Sample C1), from 50 to 0% RH): around 3%
weight loss, DVS Desorption 3 ([1]; amorphous salt (Sample C1), from 95 to 50% RH): around 1%
solid form by XRPD after heating [2]: transformation to Pattern A (crystalline salt)

C[C@@H](NC(=O)N1C(=O)[C@H](Cc2ccnc(N)c2)[C@H]1C(=O)O)C1CCCCC1 [Compound 1, (2S,3R)-3-[(2-aminopyridin-4-yl)methyl]-1-{[(1R)-1-cyclohexylethyl]carbamoyl}-4-oxoazetidine-2-carboxylic acid]
morbidity or mortality ([3]; dog, in vivo): not associated with any increases in morbidity or mortality
survival ([3]; dog, in vivo): All animals survived to study termination
prevention of activation of blood coagulation in components of cardiopulmonary bypass ([3]; hound CPB model, 105-minute CPB run): successful in preventing the activation of blood coagulation in components of cardiopulmonary bypass
pressure gradient across the membrane oxygenator ([3]; hound CPB model, IV infusion at multiple doses, entire pump run): stayed consistent through the entire run
selectivity of anticoagulant effects ([3]; hound CPB model, coagulation parameters): selective to inhibition of activated partial thromboplastin time (aPTT)
aPTT during Compound 1 infusion and prior to CPB ([3]; hound, all animals, IV infusion 3 or 10 mg/kg/hr): moderately to markedly prolonged
aPTT following cessation of infusion and CPB, at the conclusion of the study ([3]; hound, all groups): remained moderately prolonged

C[C@@H](NC(=O)N1C(=O)[C@H](Cc2ccnc(N)c2)[C@H]1C(=O)O)C1CCCCC1.Cl [Compound 1.HCl]
crystalline pattern by XRPD after DVS ([1]; crystalline Pattern A, after DVS): did not change
moisture uptake (DVS) ([1]; crystalline Pattern A, relative humidity levels between 0-95%): about 4%
solid form by XRPD of competitive slurries after 24 h [4]: did not exhibit any change in the crystalline form (Pattern A)
solid form by XRPD of competitive slurries at t=5 min [4]: transformed to Pattern A
solubility at 48 h ([5]; aqueous with cosolvent or surfactant or cyclodextrin, MeOH:H2O (1:1), 15° C.): > 100000 µg/mL
solubility at 48 h ([5]; aqueous with cosolvent or surfactant or cyclodextrin, MeOH:H2O (1:1), 45° C.): > 100000 µg/mL
solubility at 48 h ([5]; organic solvent or mixture, Acetone, 15° C.): 2200 µg/mL
solubility at 48 h ([5]; organic solvent or mixture, Acetone, 45° C.): 4800 µg/mL
solubility at 48 h ([5]; organic solvent or mixture, EtOAc, 15° C.): 200 µg/mL
solubility at 48 h ([5]; organic solvent or mixture, EtOAc, 45° C.): 2100 µg/mL
solubility at 48 h ([5]; organic solvent or mixture, EtOH:H2O (95:5), 15° C.): > 100000 µg/mL
solubility at 48 h ([5]; organic solvent or mixture, EtOH:H2O (95:5), 45° C.): > 100000 µg/mL
solubility at 48 h ([5]; organic solvent or mixture, Heptane, 15° C.): < 1000 µg/mL
solubility at 48 h ([5]; organic solvent or mixture, Heptane, 45° C.): 2100 µg/mL
solubility at 48 h ([5]; organic solvent or mixture, IPA, 15° C.): 17000 µg/mL
solubility at 48 h ([5]; organic solvent or mixture, IPA, 45° C.): 43000 µg/mL
solubility at 48 h ([5]; organic solvent or mixture, IPA:H2O (9:1), 15° C.): > 100000 µg/mL
solubility at 48 h ([5]; organic solvent or mixture, IPA:H2O (9:1), 45° C.): > 100000 µg/mL
solubility at 48 h ([5]; organic solvent or mixture, MeCN, 15° C.): 700 µg/mL
solubility at 48 h ([5]; organic solvent or mixture, MeCN, 45° C.): 700 µg/mL
solubility at 48 h ([5]; organic solvent or mixture, MeOH, 15° C.): > 100000 µg/mL
solubility at 48 h ([5]; organic solvent or mixture, MeOH, 45° C.): > 100000 µg/mL
solubility at 48 h ([5]; organic solvent or mixture, TBME, 15° C.): 400 µg/mL
solubility at 48 h ([5]; organic solvent or mixture, TBME, 45° C.): 4100 µg/mL
solubility at 48 h ([5]; organic solvent or mixture, THF, 15° C.): 1200 µg/mL
solubility at 48 h ([5]; organic solvent or mixture, THF, 45° C.): 6700 µg/mL
solubility at 48 h ([5]; Water, 15° C.): > 100000 µg/mL
solubility at 48 h ([5]; Water, 45° C.): > 100000 µg/mL

— US20210253550A1, “THERAPEUTIC COMPOUNDS AND COMPOSITIONS” (eXIthera Pharmaceuticals, Inc., priority 2018, published 2021)
